According to patent publication US20080274947A1, “Hydroxy-Substituted Diphenylazetidinones for the Treatment of Hyperlipidemia” (SANOFI-AVENTIS DEUTSCHLAND GMBH, priority 2005, published 2008):

Tests used:
[1] = Liver exposure: substance level in liver homogenate by LC-MS/MS; type: in vivo; conditions: rat, oral, male Wistar rats, 10 mg/kg of body weight, liver dissected after 2 h, read-out: Cmax values in the liver (L)
Method: The liver exposure of the compounds of the invention compared with the corresponding compounds without a hydroxyl function in the 2″ position was investigated in vivo in male Wistar rats. A rat anesthetized with ketamine/midazolam (ketamine 80 mg/kg i.p.+midazolam 5 mg/kg i.p.) undergoes laparotomy in the Linea alba, and then the product is administered intraduodenally. During this it is attempted to prevent direct reflux of the product into the stomach. The animals remain under anesthesia throughout the experiment. At the end of the experiment, after 2 h, the liver is dissected out for determination of the substance. The substance levels in the liver homogenates are determined by LC-MS/MS. For this purpose, initially the proteins are precipitated by adding acetonitrile in the presence of an internal standard. Part of the supernatant is mixed with a suitable buffer, and an aliquot of the mixture is injected. The measurement is evaluated via the peak areas of analyte and internal standard.
Cmax values in the liver (L) after oral administration of 10 mg/kg of body weight

[2] = system: uptake of 14C-cholesterol in the liver (cholesterol absorption); assay: Cholesterol absorption test: uptake of 14C-cholesterol in the liver after an oral test meal; type: in vivo, NMRI mice; conditions: mouse, dose which halves (50%) the uptake of 14C-cholesterol in the liver relative to control group
Method: Influence on Cholesterol Absorption+^3H-Taurocholic Acid Excretion on the Basis of the Fecal Excretion in Mice, Rats or Hamsters
NMRI mice, Wistar rats, or golden Syrian hamsters (in groups of n=4-6) are kept with a standard diet (Altromin, Lage (Lippe)) in metabolism cages. The animals are fasted from the afternoon before administration of the radioactive tracer (^14C-cholesterol) and adapted to wire grids.
In addition, the animals are labeled with ^3H-TCA (taurocholic acid) s.c. 24 hours before the oral administration of the test meal (^14C-cholesterol in Intralipid® 20, Pharmacia-Upjohn) (e.g. 1 μCi/mouse to 5 μCi/rat).
Cholesterol absorption test: 0.25 ml/mouse Intralipid® 20 (Pharmacia-Upjohn) (spiking with 0.25 μCi ^14C-cholesterol in 0.1 mg of cholesterol) is administered orally by gavage.
Test substances are made up separately in 0.5%/(methylcellulose (Sigma)/5% Solutol (BASF, Ludwigshafen) or a suitable vehicle.
The volume for administration of the test substance is 0.5 ml/mouse. The test substance is administered orally immediately before the test meal (Intralipid with ^14C-cholesterol label) (cholesterol absorption test).
Feces are collected for 24 h: the fecal elimination of ^14C-cholesterol and ^3H taurocholic acid (TCA) is determined after 24 h.
The livers are removed, homogenized and combusted in aliquots in an oximate (model 307, Packard) to determine the amount of ^14C-cholesterol taken up/absorbed.
The amount of ^14C-cholesterol taken up in the liver is evaluated in relation to a control group (vehicle-treated) as a function of the dose of the substance administered. The ED50 values are interpolated from a dose-effect plot as the dose which halves (50%) the uptake of ^14C-cholesterol in the liver relative to a control group.

serum LDL cholesterol = assay: Hamster model: serum LDL cholesterol reduction on a cholesterol-supplemented diet; type: in vivo, Syrian hamsters; conditions: Mesocricetus auratus, po, once a day by gavage on 12 consecutive days, LDL cholesterol reduction vs placebo-treated controls
Method: Syrian hamsters (in groups of n=5-9) receive a standard diet (ssniff, Soest Germany) supplemented with 0.1% cholesterol.
The test substances are made up in 0.5%/(methylcellulose (Sigma)/5% Solutol (BASF, Ludwigshafen) or another suitable vehicle, and at least three dosages are administered once a day by gavage on 12 consecutive days.
On day 12, the animals are exsanguinated from the aorta under deep anesthesia. The serum is analyzed for total cholesterol, LDL-cholesterol, HDL-cholesterol and triglycerides using standard kits from Roche in accordance with the guidelines of the German Society for Clinical Chemistry.
The ED50 values for LDL cholesterol reduction compared with placebo-treated control animals were calculated using a standard logistic model for the dose-effect plot.

| Cmax at 2 h [1] [ng/mL] | Compound | ED50 (liver) [2] [mg/mouse] | ED50 (serum LDL cholesterol) [mg/kg] |
| --- | --- | --- | --- |
| 300 | N.O=C1[C@H](CC[C@H](O)c2ccc(F)cc2)[C@@H](c2ccc(OCCCOS(=O)(=O)O)cc2O)N1c1ccc(F)cc1 | – | – |
| – | O=C1[C@H](CC[C@H](O)c2ccc(F)cc2)[C@@H](c2ccc(NS(=O)(=O)O)cc2O)N1c1ccc(F)cc1 [Example F, Ammonium (4-[1-(4-fluorophenyl)-3-[3-(4-fluorophenyl)-3-hydroxypropyl]-4-oxoazetidin-2-yl]-3-hydroxyphenyl)sulfamate] | 0.3 | – |
| – | O=C1C(CC[C@H](O)c2ccc(F)cc2)[C@@H](c2ccc(CN3CCN(S(=O)(=O)O)CC3)cc2O)N1c1ccc(F)cc1 (stereo partly shown) [Example B, Ammonium 4-(4-{1-(4-Fluorophenyl)-3-[3-(4-fluorophenyl)-3-hydroxypropyl]-4-oxoazetidin-2-yl}-3-hydroxybenzyl)piperazine-1-sulfamate] | <0.1 | – |
| – | O=C(OCc1ccc([C@@H]2[C@@H](CC[C@H](O)c3ccc(F)cc3)C(=O)N2c2ccc(F)cc2)c(O)c1)N1CCN(S(=O)(=O)O)CC1 [Example A, Ammonium 4-(4-{1-(4-fluorophenyl)-3-[3-(4-fluorophenyl)-3-hydroxypropyl]-4-oxoazetidin-2-yl}-3-hydroxybenzyloxycarbonyl)piperazine-1-sulfamate] | 0.01 | 0.2 |
| 200 | O=C1[C@H](CC[C@H](O)c2ccc(F)cc2)[C@@H](c2ccc(OCc3ccc(C[N+]45CCN(CC4)CC5)cc3)cc2)N1c1ccc(F)cc1.[Br-] [reference compound] | – | – |
| 24300 | N.O=C1[C@H](CC[C@H](O)c2ccc(F)cc2)[C@@H](c2ccc(OCCCOS(=O)(=O)O)cc2)N1c1ccc(F)cc1 [reference compound] | – | – |
| – | O=C(Nc1ccc([C@@H]2[C@@H](CC[C@H](O)c3ccc(F)cc3)C(=O)N2c2ccc(F)cc2)c(O)c1)N1CCN(S(=O)(=O)O)CC1 [Example E, Ammonium 4-(4-{1-(4-fluorophenyl)-3-[3-(4-fluorophenyl)-3-hydroxypropyl]-4-oxoazetidin-2-yl}-3-hydroxyphenylcarbamoyl)piperazine-1-sulfamate] | <0.01 | 0.1 |
| – | C[n+]1ccn(CCCCOc2ccc([C@@H]3C(CC[C@H](O)c4ccc(F)cc4)C(=O)N3c3ccc(F)cc3)c(O)c2)c1.[I-] (stereo in doubt) [Example M, 3-[4-(4-{1-(4-Fluorophenyl)-3-[3-(4-fluorophenyl)-3-hydroxypropyl]-4-oxoazetidin-2-yl}-3-hydroxyphenoxy)butyl]-1-methyl-3H-imidazol-1-ium iodide] | <0.1 | – |
| – | O=C(C[N+]12CCN(CC1)CC2)Nc1ccc([C@@H]2[C@@H](CC[C@H](O)c3ccc(F)cc3)C(=O)N2c2ccc(F)cc2)c(O)c1.[I-] [H, 1-[(4-{1-(4-Fluorophenyl)-3-[3-(4-fluorophenyl)-3-hydroxypropyl]-4-oxoazetidin-2-yl}-3-hydroxyphenylcarbamoyl)methyl]-4-aza-1-azoniabicyclo[2.2.2]octane iodide] | 0.01 | – |
| – | COc1ccc([C@@H]2[C@@H](CC[C@H](O)c3ccc(F)cc3)C(=O)N2c2ccc(CNC(=O)N3CCN(C(=O)C[N+]45CCN(CC4)CC5)CC3)cc2)c(O)c1.[Cl-] [Example P, 1-[2-(4-{4-[3-[3-(4-Fluorophenyl)-3-hydroxypropyl]-2-(2-hydroxy-4-methoxyphenyl)-4-oxoazetidin-1-yl]benzylcarbamoyl}piperazin-1-yl)-2-oxoethyl]-4-aza-1-azoniabicyclo[2.2.2]octane chloride] | 0.3 | – |
| – | O=C(Oc1ccc([C@@H]2[C@@H](CC[C@H](O)c3ccc(F)cc3)C(=O)N2c2ccc(F)cc2)c(O)c1)N1CCN(S(=O)(=O)O)CC1 [I, Ammonium 4-(4-{1-(4-Fluorophenyl)-3-[3-(4-fluorophenyl)-3-hydroxypropyl]-4-oxoazetidin-2-yl}-3-hydroxyphenoxycarbonyl)piperazine-1-sulfamate] | 0.01 | < 0.1 |
| – | O=C1C(CC[C@H](O)c2ccc(F)cc2)[C@@H](c2ccc(OCc3ccc(C[N+]45CCN(CC4)CC5)cc3)cc2O)N1c1ccc(F)cc1.[Br-] (stereo partly shown) [Example N, 1-[4-(4-{1-(4-Fluorophenyl)-3-[3-(4-fluorophenyl)-3-hydroxypropyl]-4-oxoazetidin-2-yl}-3-hydroxyphenoxymethyl)benzyl]-4-aza-1-azoniabicyclo[2.2.2]octane bromide] | 0.01 | – |
| – | C[N+]1(C)CCN(C(=O)OCc2ccc([C@@H]3[C@@H](CC[C@H](O)c4ccc(F)cc4)C(=O)N3c3ccc(F)cc3)c(O)c2)CC1.[I-] [Example C, 4-(4-{1-(4-Fluorophenyl)-3-[3-(4-fluorophenyl)-3-hydroxypropyl]-4-oxoazetidin-2-yl}-3-hydroxybenzyloxycarbonyl)-1,1-dimethylpiperazin-1-ium iodide] | 0.1 | – |
| – | COc1ccc([C@@H]2[C@@H](CC[C@H](O)c3ccc(F)cc3)C(=O)N2c2ccc(CNC(=O)CCCCCCCCCCNC(=O)[C@H](O)[C@@H](O)[C@H](O)[C@H](O)CO)cc2)c(O)c1 [Example O, 11-(2,3,4,5,6-Pentahydroxyhexanoylamino)undecanoic acid 4-[3-[3-(4-fluorophenyl)-3-hydroxypropyl]-2-(2-hydroxy-4-methoxyphenyl)-4-oxoazetidin-1-yl]benzylamide] | <0.01 | – |
| 80 | O=C1[C@H](CC[C@H](O)c2ccc(F)cc2)[C@@H](c2ccc(OCc3ccc(C[N+]45CCN(CC4)CC5)cc3)cc2O)N1c1ccc(F)cc1.[Br-] | – | – |
| – | O=C1[C@H](CC[C@H](O)c2ccc(F)cc2)[C@@H](c2ccc(OCCCOS(=O)(=O)O)cc2O)N1c1ccc(F)cc1 [Example K] | <0.01 | – |
